According to article PMC11601876, “Manganese-based type I collagen-targeting MRI probe for in vivo imaging of liver fibrosis” (Research Square, 2024):

Experiments:
[1] = Kinetic inertness: Mn2+ dissociation upon Zn2+ challenge; type: physicochemical; conditions: 0.5 mM Mn2+ (0.167 mM Mn-CBP20), 10 mM Zn(OTf)2, pH 7.4 50 mM Tris/18 mM citrate, 27 °C, monitored by r2 change at 1.4T
Description: Figure 2. In vitro assays for collagen binding and kinetic inertness.
To assess kinetic inertness to Mn^2+ release, we evaluated Mn^2+ dissociation kinetics upon challenge of 0.167 mM Mn-CBP20 (0.5 mM Mn^2+) with 10 mM Zn(OTf)2 in the presence of pH 7.4 50 mM Tris/ 18 mM citrate buffer, Figure 2B. The presence of a weak chelator such as citrate is required to maintain homogenous reaction conditions during the course of the measurement, as treatment of Mn-CBP20 with even 1 mol equiv. […] Mn^2+ dissociation was monitored by observing change in r2. Under this set of assay conditions, the r2 value associated with dissociated Mn^2+ (16.3 mM^−1s^−1) is approximately half that of Mn^2+ bound within Mn-CBP20. As positive control, we monitored Mn^2+ dissociation from the kinetically inert complex Mn-CDTA (r2 = 5.9 mM^−1s^−1).

[2] = rats; in words; cited from earlier work
Description: Whole body PET-CT images recorded 1 and 7 days after [^52Mn]Mn-CBP20 injection are shown in Figure 6A and ex vivo ^52Mn biodistribution data are shown in Figure 6B and 6C and also tabulated in Supplementary Tables 1 and 2. The highest concentration of ^52Mn 1 day after injection is found in the kidneys, consistent with the expected renal elimination of the compound.

half-life (t1/2) of Mn2+ dissociation [1]	Compound	52Mn uptake in salivary glands relative to other tissues [2]
15.5 h	O=C([O-])CN(CC(=O)[O-])C1CCCCC1N(CC(=O)[O-])CC(=O)[O-].[Mn+2] (centres unmarked) [Mn-CDTA]	
	Mn-DPDP	high and persistent ^52Mn uptake in the salivary glands relative to other tissues
